Structures can show the parent of a compound that is named as a salt. Where two headings read alike, the source gives them in different places.
How the values were obtained:
[1] = system: toxic extensor seizure (maximal electroshock test); experiment: Mouse anticonvulsant model, maximal electroshock test (MES); assay type: in vivo; settings: for ED50: ip; for MES ED50 (Active @ 30): active at dose 30; for MES ED50 (Active @ 100): active at dose 100
Protocol: Procedure for Testing in Mouse Anticonvulsant Model
The compounds of Formula (I) and Formula (II) are useful as anticonvulsant agents. The anticonvulsant activity of the subject compounds was determined using a standard “maximal electroshock test” (MES). In this test, activity is indicated by a block of the toxic extensor seizure, as described by Swinyard, et al., in J. PharmacoL Exptl. Therap., 106, 319 (1952). A more recent description of current anticonvulsant drug screening is given in Swinyard, et al., in Epilepsia, 19, 409 (1978).
The anticonvulsant activity of compounds of this invention tested according to the Swinyard (1952) method are shown in Table 3, having values for the Mouse MES Model in ED50 per dose (in mg/kg, i.p.).

[2] = system: mechanical allodynia (paw withdrawal threshold); experiment: Neuropathic pain model (Chung Model), spinal nerve ligation, mechanical allodynia with von Frey hairs; assay type: in vivo, Sprague-Dawley rats; settings: for inhibition in vivo at 30 mg/kg: read-out: % MPE
Protocol: Procedure for Testing in a Neuropathic Pain Model
The compounds of the present invention are useful in the treatment of neuropathic pain. The use of the compounds in treating neuropathic pain was determined using an animal model. This model was developed and first described by S. H. Chung and J. M. Chung, An Experimental Model for Peripheral Neuropathy Produced by Segmental Spinal Nerve Ligation in the Rat, Pain, 1992, 50, 355-363 (referred to hereinafter as the “Chung Model”).
Male Sprague-Dawley rats, weighing approximately 200 g each were anesthetized with isoflurane. The spinal nerve at the level of L5 was exposed through an incision just left of the dorsal midline and tightly ligated with 6-0 silk. At various times after surgery, animals were tested for mechanical allodynia with von Frey hairs (monofilaments which are calibrated to bend under a certain amount of pressure, ranging from 0.41 to 15.1 g). In order to calculate a paw withdrawal threshold (PWT), tactile allodynia was measured by recording the pressure at which the affected paw was withdrawn from graded stimuli according to the procedure of S. R. Chaplan, J. W. Pogrel, T. L. Yaksh, Role of Voltage-Dependent Calcium Channel Subtypes in Experimental Tactile Allodynia, J. Pharmacol. Exp. Ther. 1994, 269,1117-1123. Normal rats can withstand at least 15 g of pressure without responding. Operated rats, however, can respond to as little as 0.25 g of pressure. The surgery was deemed successful if the animal responded with a PWT of less than 4 g of pressure applied to the affected paw.
The sham operation consisted of a similar surgery; the spinal nerve was visualized without being ligated. […] The results of the assay were expressed as percent of the maximum possible effect (% MPE), calculated as the PWT at the time of testing minus the baseline PWT divided by the maximum PWT (15 g) minus the baseline PWT times 100.
The compounds having Formula (I) and Formula (II) were tested for activity against neuropathic pain by being dissolved or suspended in either water or hydroxypropyl methylcellulose, respectively. Postoperative animals between 14 to 42 days were fasted overnight prior to dosing. Animals were orally dosed and dosage volumes were calculated on a 4 mL/kg basis. The screening dose employed was 30 mg/kg.

[3] = Chung Model rat, antiallodynic activity, oral screening dose 30 mg/kg

Row | SMILES | melting point | inhibition in vivo at 30 mg/kg [2, 3] | further results
1 | CCN(CC)CC(=O)c1cc(C(=O)c2cccs2)cn1C (as salt: HCl) [Cpd 2, 1-[4-(2-Thienoyl)-1-methyl-1H-pyrrol-2-yl]-2-(N,N-diethylamino)ethanone] | 196 to 198 °C |  | 
2 | CCN(CC)CC(=O)c1cc(C(=O)c2cccc3ccccc23)cn1C (as salt: HCl) [Cpd 3, 1-[4-(1-Naphthalenoyl)-1-methyl-1H-pyrrol-2-yl]-2-(N,N-diethylamino)ethanone] | 222 to 224 °C |  | 
3 | Cn1cc(C(=O)c2cccc3ccccc23)cc1C(=O)CN1CCCCC1 (as salt: HCl) [Cpd 4, 1-[4-(1-Naphthalenoyl)-1-methyl-1H-pyrrol-2-yl]-2-(1-piperidinyl)ethanone] | 246 to 248 °C |  | 
4 | CC(N(C)C)n1cc(C(=O)c2ccc3ccccc3c2)cc1C(=O)CN1CCCCC1 (stereo not shown) (as salt: HCl) [Cpd 5, 1-[4-(2-Naphthalenoyl)-1-(N,N-dimethylaminoeth-2-yl)-1H-pyrrol-2-yl]-2-(1-piperidinyl)ethanone] | 239 to 242 °C |  | 
5 | Cn1cc(C(=O)CCN2CCCCC2)cc1C(=O)c1cccc2ccccc12 (as salt: HCl) [Cpd 8, 1-[5-(1-Naphthalenoyl)-1-methyl-1H-pyrrol-3-yl]-3-(1-piperidinyl)-1-propanone] | 141 to 143 °C |  | 
6 | CCCOn1cc(C(=O)CN(CC)CC)cc1C(=O)c1ccc(Cl)cc1 (as salt: HCl) [Cpd 9, 1-[5-(4-Chlorobenzoyl)-1-ethylmethoxy-1H-pyrrol-3-yl]2-[N,N-diethylamino]ethanone] | 149 to 151 °C |  | 
7 | CCN(CC)CC(=O)c1cc(C(=O)c2cccnc2)n(C)c1 (as salt: HCl) [Cpd 12, 1-[5-(3-Pyridinoyl)-1-methyl-1H-pyrrol-3-yl]-2-(N,N-diethylamino)ethanone] | 158 to 160 °C (dec.) |  | 
8 | CCN(CC)CC(=O)c1cc(C(=O)c2ccc3ccccc3c2)n(C)c1 (as salt: HCl) [Cpd 13, 1-[5-(2-Naphthalenoyl)-1-methyl-1H-pyrrol-3-yl]-2-(N,N-diethylamino)ethanone] | 195 to 196 °C |  | 
9 | CCC(N(C)C)n1cc(C(=O)CN2CCCCC2)cc1C(=O)c1ccc(Cl)cc1 (stereo not shown) (as salt: HCl) [Cpd 14, 1-[5-(4-Chlorobenzoyl)-1-(N,N-dimethylaminoprop-3-yl) -1H-pyrrol-3-yl]-2-(1-piperidinyl)ethanone] | 138 to 141 °C |  | 
10 | CCSCn1cc(C(=O)CN(CC)CC)cc1C(=O)c1ccccc1Cl (as salt: HCl) [Cpd 16, 1-[5-(2-Chlorobenzoyl)-1-ethylthiomethyl-1H-pyrrol-3-yl]-2-(N,N-diethylamino)ethanone] | 157 to 158 °C |  | 
11 | Cn1cc(C(=O)c2ccc3ccccc3c2)cc1C(=O)CN1CCCCC1 (as salt: HCl) [Cpd 17, 1-[4-(2-Naphthalenoyl)-1-methyl-1H-pyrrol-2-yl]-2-(1-piperidinyl)ethanone] | 246 to 248 °C |  | 
12 | CCN(CC)CC(=O)c1cc(C(=O)c2ccc3ccccc3c2)cn1C (as salt: fumarate) [Cpd 1, 1-[4-(2-Naphthalenoyl)-1-methyl-1H-pyrrol-2-yl]-2-(N,N-diethylamino)ethanone] | 130 to 132 °C |  | 
13 | CCN(CC)CC(=O)c1cc(C(=O)c2cccs2)n(C)c1 (as salt: salt) [Cpd 10, 1-[5-(2-Thienoyl)-1-methyl-1H-pyrrol-3-yl]-2-(N,N-diethylamino)ethanone] | 153 to 155 °C |  | 
14 | CCN(CC)CC(=O)c1cc(C(=O)c2ccc3ccccc3c2)cn1C [Cpd 1, 1-[4-(2-Naphthalenoyl)-1-methyl-1H-pyrrol-2-yl]-2-(N,N-diethylamino)ethanone] |  | 80% | ED50 [1]: 11 mg/kg
15 | CCN(CC)CC(=O)c1cc(C(=O)c2cccs2)cn1C [Cpd 2, 1-[4-(2-Thienoyl)-1-methyl-1H-pyrrol-2-yl]-2-(N,N-diethylamino)ethanone] |  | 14% | MES ED50 (Active @ 30) ([1]; i.p.): Active @ 30
16 | CCN(CC)CC(=O)c1cc(C(=O)c2cccc3ccccc23)cn1C [Cpd 3, 1-[4-(1-Naphthalenoyl)-1-methyl-1H-pyrrol-2-yl]-2-(N,N-diethylamino)ethanone] |  |  | MES ED50 (Active @ 30) ([1]; i.p.): Active @ 30; inhibition in vivo at 30 mg/kg ([2]; Rattus norvegicus, po): 87%
17 | Cn1cc(C(=O)c2cccc3ccccc23)cc1C(=O)CN1CCCCC1 [Cpd 4, 1-[4-(1-Naphthalenoyl)-1-methyl-1H-pyrrol-2-yl]-2-(1-piperidinyl)ethanone] |  |  | MES ED50 (Active @ 30) ([1]; i.p.): Active @ 30; inhibition in vivo at 30 mg/kg ([2]; Rattus norvegicus, po): 12%
18 | CCN(CC)CC(=O)c1cc(-c2ccc(Cl)s2)n(C)c1 [Cpd 6, 1-[5-(5-Chlorothieno-2-yl)-1-methyl-1H-pyrrol-3-yl]-2-(N,N-diethylamino)ethanone] |  |  | MES ED50 (Active @ 30) ([1]; i.p.): Active @ 30; % MPE [2, 3]: 54 % MPE
19 | CN1CCN(CC(=O)c2cc(C(=O)c3ccc(Cl)cc3)n(C)c2)CC1 [Cpd 7, 1-[5-(4-Chlorobenzoyl)-1-methyl-1H-pyrrol-3-yl]-2-(4-methyl-1-piperazinyl)ethanone] |  | 21% | ED50 [1]: 16.6 mg/kg
20 | Cn1cc(C(=O)CCN2CCCCC2)cc1C(=O)c1cccc2ccccc12 [Cpd 8, 1-[5-(1-Naphthalenoyl)-1-methyl-1H-pyrrol-3-yl]-3-(1-piperidinyl)-1-propanone] |  |  | MES ED50 (Active @ 30) ([1]; i.p.): Active @ 30; inhibition in vivo at 30 mg/kg ([2]; Rattus norvegicus, po): 25%
21 | CCCOn1cc(C(=O)CN(CC)CC)cc1C(=O)c1ccc(Cl)cc1 [Cpd 9, 1-[5-(4-Chlorobenzoyl)-1-ethylmethoxy-1H-pyrrol-3-yl]2-[N,N-diethylamino]ethanone] |  | 5% | MES ED50 (Active @ 100) ([1]; i.p.): Active @ 100
22 | CCN(CC)CC(=O)c1cc(C(=O)c2cccs2)n(C)c1 [Cpd 10, 1-[5-(2-Thienoyl)-1-methyl-1H-pyrrol-3-yl]-2-(N,N-diethylamino)ethanone] |  | 0% | MES ED50 (Active @ 100) ([1]; i.p.): Active @ 100
23 | Cn1cc(C(=O)CN2CCCCC2)cc1C(=O)c1cccs1 [Cpd 11, 1-[5-(2-Thienoyl)-1-methyl-1H-pyrrol-3-yl]-2-(1-piperidinyl)ethanone] | 178 to 179 °C | 34% | MES ED50 (Active @ 30) ([1]; i.p.): Active @ 30
24 | CCN(CC)CC(=O)c1cc(C(=O)c2cccnc2)n(C)c1 [Cpd 12, 1-[5-(3-Pyridinoyl)-1-methyl-1H-pyrrol-3-yl]-2-(N,N-diethylamino)ethanone] |  | 4% | MES ED50 (Active @ 100) ([1]; i.p.): Active @ 100
25 | CCN(CC)CC(=O)c1cc(C(=O)c2ccc3ccccc3c2)n(C)c1 [Cpd 13, 1-[5-(2-Naphthalenoyl)-1-methyl-1H-pyrrol-3-yl]-2-(N,N-diethylamino)ethanone] |  | 80% | MES ED50 (Active @ 300) ([1]; i.p., active at dose 300): Active @ 300
26 | CCN(C)CC(=O)c1cc(C(=O)c2ccc3ccccc3c2)n(C)c1 [Cpd 15, 1-[5-(2-Naphthalenoyl)-1-methyl-1H-pyrrol-3-yl]-2-(N,N-ethylmethylamine)ethanone] |  |  | MES ED50 (Active @ 30) ([1]; i.p.): Active @ 30; % MPE [2, 3]: 40 % MPE

Source: patent US6573267B2, “Useful aroyl aminoacyl pyrrole compounds” (Ortho-McNeil Pharmaceutical, Inc., priority 2000, dated 2003)
